The values that follow come from US7084151B2 (Ligand Pharmaceuticals Incorporated, priority 2002, dated 2006).

Read-outs that look alike come from different tables or passages of the source. Bounds are passed on as bounds.

Series [1] addresses T1, PR (Homo sapiens, UniProt P06401).
T1 construct: expressed in transfected cells; host or cells: CV-1 cells (African green monkey kidney fibroblasts), transiently transfected
T1 sequence (P06401 1-933): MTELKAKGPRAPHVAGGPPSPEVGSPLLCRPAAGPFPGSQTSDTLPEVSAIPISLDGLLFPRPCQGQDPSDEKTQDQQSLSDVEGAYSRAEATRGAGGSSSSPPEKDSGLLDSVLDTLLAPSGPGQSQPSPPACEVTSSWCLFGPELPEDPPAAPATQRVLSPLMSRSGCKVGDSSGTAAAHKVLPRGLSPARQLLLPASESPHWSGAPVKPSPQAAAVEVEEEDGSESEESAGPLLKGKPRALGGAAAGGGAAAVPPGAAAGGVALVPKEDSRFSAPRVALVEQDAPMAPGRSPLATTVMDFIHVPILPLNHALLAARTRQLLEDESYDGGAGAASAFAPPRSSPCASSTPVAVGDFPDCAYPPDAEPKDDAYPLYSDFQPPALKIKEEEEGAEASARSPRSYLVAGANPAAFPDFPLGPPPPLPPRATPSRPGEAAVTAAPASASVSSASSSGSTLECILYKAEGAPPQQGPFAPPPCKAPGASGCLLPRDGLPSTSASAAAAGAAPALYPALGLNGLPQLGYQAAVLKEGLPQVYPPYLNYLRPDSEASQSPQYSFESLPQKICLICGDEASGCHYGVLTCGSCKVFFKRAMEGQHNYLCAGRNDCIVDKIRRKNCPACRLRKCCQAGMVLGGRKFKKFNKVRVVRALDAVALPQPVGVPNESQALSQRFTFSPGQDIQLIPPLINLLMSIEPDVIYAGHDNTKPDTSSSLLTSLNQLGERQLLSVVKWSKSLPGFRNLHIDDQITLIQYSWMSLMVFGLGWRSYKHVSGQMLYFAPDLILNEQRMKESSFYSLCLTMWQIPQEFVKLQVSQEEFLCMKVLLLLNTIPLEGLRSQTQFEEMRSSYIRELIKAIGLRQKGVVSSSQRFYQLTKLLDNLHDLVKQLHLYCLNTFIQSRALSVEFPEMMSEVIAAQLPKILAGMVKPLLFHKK
The series can be described thus: Cotransfection assay, PR antagonist activity in CV-1 cells. The class given is cell-based. The following applies: for Emax: percent maximal response relative to reference antagonist, read-out: PR Antagonist CV-1 Cells Efficacy.
Protocol: (§1) Briefly, the cotransfection assays were carried out in CV-1 cells (African green monkey kidney fibroblasts), which were transiently transfected, by the standard calcium phosphate coprecipitation procedure (Berger, et al., J. Steroid Biochem. Mol. Bio. 1992, 41, 733–738) with the Plasmid containing receptor, MTV-LUC reporter, pRS-β-Gal, and filler DNA (Rous sarcoma virus chloramphenicol acetyltransferase). […] All the cotransfection experiments were carried out in 96-well plates by automation (Beckman Biomomek automated workstation).

A further series has as its target T2, hPR-A (Homo sapiens, UniProt P06401).
T2 sequence (P06401 1-769 isoform P06401-2): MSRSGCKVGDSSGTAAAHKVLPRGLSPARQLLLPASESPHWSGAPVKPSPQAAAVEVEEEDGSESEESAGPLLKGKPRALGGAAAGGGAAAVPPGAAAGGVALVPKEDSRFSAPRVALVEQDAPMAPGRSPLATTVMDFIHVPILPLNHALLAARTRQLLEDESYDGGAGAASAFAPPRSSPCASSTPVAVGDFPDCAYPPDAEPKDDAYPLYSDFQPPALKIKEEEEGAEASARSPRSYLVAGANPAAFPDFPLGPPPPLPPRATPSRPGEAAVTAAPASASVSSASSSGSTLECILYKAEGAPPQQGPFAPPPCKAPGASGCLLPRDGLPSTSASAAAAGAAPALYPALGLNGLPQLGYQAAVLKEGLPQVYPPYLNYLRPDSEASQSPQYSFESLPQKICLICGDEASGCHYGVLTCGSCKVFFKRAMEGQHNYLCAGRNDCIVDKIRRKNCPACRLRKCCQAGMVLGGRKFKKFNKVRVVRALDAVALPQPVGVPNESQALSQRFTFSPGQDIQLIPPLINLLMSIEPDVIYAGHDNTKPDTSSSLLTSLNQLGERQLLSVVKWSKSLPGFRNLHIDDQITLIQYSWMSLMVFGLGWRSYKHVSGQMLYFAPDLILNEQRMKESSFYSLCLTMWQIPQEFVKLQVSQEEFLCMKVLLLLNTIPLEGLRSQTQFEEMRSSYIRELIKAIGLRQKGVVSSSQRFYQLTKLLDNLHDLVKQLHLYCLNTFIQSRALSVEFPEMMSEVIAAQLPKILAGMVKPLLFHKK
The series can be described thus: Receptor competitive binding assay. Conditions: read-out: PR Binding Ki.

Series [2] deals with T1, PR. The series can be described thus: Cotransfection assay, PR agonist activity in CV-1 cells. The following applies: for Emax: CV-1, read-out: PR Agonist CV-1 Cells Efficacy. The class given is cell-based.
Protocol: as §1
Where [3] appears, read: CV-1 cells, MTV-LUC reporter, read-out: PR Antagonist CV-1 Cells Potency (IC50).
[4] abbreviates: CV-1 cells, MTV-LUC reporter, read-out: PR Agonist CV-1 Cells Potency (EC50).

One may read the IC50 as the concentration at which inhibition is half-maximal. In general, Ki refers to the equilibrium dissociation constant of an inhibitor or competing ligand from its target. Broadly, the EC50 is the concentration giving half of the maximal effect. In general, melting point refers to the temperature of the solid-liquid transition.

Description for hPR-A: The preparation of receptor binding assays for hPR-A was described in literature (Pathirana, et al., Mol. Pharm. 1995, 47, 630–635.)

In the case of `CC1=CC(C)(C)Nc2ccc3c(c21)C(=C1SCCCS1)Oc1ccc(F)cc1-3` [Compound 10, 9-Fluoro-5-(1,3-dithia-2-cyclohexylidene)-1,2-dihydro-2,2,4-trimethyl-5H-chromeno[3,4-f]quinoline], the melting point lay within 120 to 122 °C. This compound also showed a concentration for half-maximal inhibition (IC50) against PR [1] of over 1 µM. The Emax at PR [1] (CV-1 cells) was under 20%. Further, on hPR-A, the inhibitory constant (Ki) is 0.0063 µM. Moreover, at PR [2], it took 0.002 µM to reach a half-maximal effect (EC50) and the Emax turned out to be 144%.
Take `COc1ccc2c(c1)OC(=C1SCCCS1)c1c-2ccc2c1C(C)=CC(C)(C)N2` [Compound 13, 8-methoxy-5-(1,3-dithia-2-cyclohexylidene)-1,2-dihydro-2,2,4-trimethyl-5H-chromeno[3,4-f]quinoline]: the half-maximal inhibitory concentration (IC50) at PR [1] (setting [3]) was over 1 µM. Moreover, the Emax on PR [1] (CV-1 cells) is under 20%; at PR [2] it was 56%. Moreover, on hPR-A, the inhibitory constant (Ki) was determined as 0.014 µM. Also, the EC50 at PR [2] (setting [4]) stood at 0.032 µM.
On to `CC1=CC(C)(C)Nc2ccc3c(c21)C(=C1SCCCS1)Oc1c(F)cc(F)cc1-3` [Compound 15, 7,9-difluoro-5-(1,3-dithia-2-cyclohexylidene)-1,2-dihydro-2,2,4-trimethyl-5H-chromeno[3,4-f]quinoline], for which, on PR [1] (setting [3]), the half-inhibitory concentration (IC50) was over 1 µM. The Emax on PR [1] (CV-1 cells) was under 20%; at PR [2] it was 155%. Also, the inhibition constant (Ki) on hPR-A amounted to 0.0037 µM. Also, at PR [2] (setting [4]), the concentration giving a half-maximal response (EC50) amounted to 0.0053 µM.
Take `CC1=CC(C)(C)Nc2ccc3c(c21)C(=C1SCCCS1)Oc1c(F)cccc1-3` [Compound 17, 7-fluoro-5-(1,3-dithia-2-cyclohexylidene)-1,2-dihydro-2,2,4-trimethyl-5H-chromeno[3,4-f]quinoline]: at PR [1] (setting [3]), the IC50 was over 1 µM. The values for the Emax at PR [1] (CV-1 cells) and on PR [2] were under 20% and 107%, respectively. Besides, the Ki at hPR-A amounted to 0.0043 µM. Further, the concentration giving a half-maximal response (EC50) on PR [2] (setting [4]) came out at 0.011 µM.
For `CC1=CC(C)(C)Nc2ccc3c(c21)C(=C1CCCCC1)Oc1c(F)cccc1-3` [Compound 19, 7-fluoro-5-cyclohexylidene-1,2-dihydro-2,2,4-trimethyl-5H-chromeno[3,4-f]quinoline], at hPR-A, the Ki came to 0.074 µM. The Emax at PR [2] is 48%. The EC50 at PR [2] (setting [4]) was found to be 0.038 µM.
With `CC1=CC(C)(C)Nc2ccc3c(c21)C(=C1CCCCC1)Oc1c(F)cc(F)cc1-3` [Compound 20, 7,9-difluoro-5-cyclohexylidene-1,2-dihydro-2,2,4-trimethyl-5H-chromeno[3,4-f]quinoline], the IC50 at PR [1] (setting [3]) is over 1 µM. Also, the results for the Emax at PR [1] (CV-1 cells) and at PR [2] were under 20% and 82%, respectively. Moreover, at hPR-A, the inhibition constant Ki amounted to 0.039 µM. In addition, at PR [2] (setting [4]), the EC50 came to 0.016 µM.
Turning to `CC1(C)C=Cc2c(ccc3c2C(=C2SCCCS2)Oc2c(F)cccc2-3)N1` [Compound 21, 7-fluoro-5-(1,3-dithia-2-cyclohexylidene)-1,2-dihydro-2,2-dimethyl-5H-chromeno[3,4-f]quinoline], the Emax on PR [2] was found to be 45%. Further, the EC50 on PR [2] (setting [4]) worked out at 0.032 µM.
Regarding `CC1=CC(C)(C)Nc2ccc3c(c21)C(=C1C=CCCC1)Oc1c(F)cccc1-3` [Compound 23, 7-fluoro-5-(2-cyclohexenylidene)-1,2-dihydro-2,2,4-trimethyl-5H-chromeno[3,4-f]quinoline], the IC50 on PR [1] (setting [3]) is over 1 µM. Besides, the Emax is under 20% on PR [1] (CV-1 cells) and 70% at PR [2]. The inhibitory constant (Ki) at hPR-A worked out at 0.022 µM. Moreover, the EC50 at PR [2] (setting [4]) came to 0.035 µM.
Consider `CC(=O)[C@H]1CC[C@H]2[C@@H]3CCC4=CC(=O)CC[C@]4(C)[C@H]3CC[C@]12C` [Prog, progesterone, reference compound], for which the Emax is under 20% on PR [1] (CV-1 cells) and 100% at PR [2].
In the case of `CC#C[C@]1(O)CC[C@H]2[C@@H]3CCC4=CC(=O)CCC4=C3[C@@H](c3ccc(N(C)C)cc3)C[C@@]21C` [RU486, mifepristone, reference compound], the “PR Agonist CV-1 Cells Efficacy” value at PR [2] (CV-1 cells, percent maximal response relative to progesterone) was “na (na = not active (i.e. efficacy of <20 and potency of >1,000))”.
As for `CN(C)c1ccc([C@H]2C[C@]3(C)[C@@H](CC[C@]3(O)CCCO)[C@@H]3CCC4=CC(=O)CCC4=C32)cc1` [ZK299, reference compound], the Emax was 99% on PR [1] (CV-1 cells) and under 20% on PR [2].
